From PubChem BioAssay (NCI)
Several values for one entry are separate records, joined by “and”; a condition that tells them apart may be missing. Equal entries are not always repeated.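 Cultured in 96-well plates, cells were exposed to test compound for 48 hours across five concentrations. GI50 marks 50% less growth. The concentration for full growth arrest is given as TGI.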

Legend:
Assay in all cases: NCI tumour cell line growth inhibition, 48 h
[1] = test system: BT-549 breast
[2] = test system: IGROV1 ovarian
[3] = test system: LOX IMVI melanoma
[4] = test system: MCF7 breast
[5] = test system: OVCAR-5 ovarian
[6] = test system: RPMI-8226 leukemia
[7] = test system: SF-268 CNS
[8] = test system: SF-539 CNS
[9] = test system: SK-OV-3 ovarian
[10] = test system: SN12C renal
[11] = test system: SNB-19 CNS
[12] = test system: SR leukemia
[13] = test system: T-47D breast
[14] = test system: A498 renal
[15] = test system: HS 578T breast

Structure (SMILES)	TGI [1] [µM]	TGI [2] [µM]	TGI [3] [µM]	TGI [4] [µM]	TGI [5] [µM]	TGI [6] [µM]	TGI [7] [µM]	TGI [8] [µM]	TGI [9] [µM]	TGI [10] [µM]	TGI [11] [µM]	TGI [12] [µM]	TGI [13] [µM]	TGI [14] [µM]	TGI [15] [µM]	GI50 [4] [µM]	GI50 [6] [µM]	GI50 [7]	GI50 [12] [µM]	GI50 [13]
C1CC[C@H]2SSC3CCCC[C@H]3SSC2C1 (some centres not stated)	> 100	> 100	> 100	> 100	> 100	> 100	> 100	> 100	> 100	> 100	> 100	> 100	> 100							
COC(=O)/C=C/C1(O)C=CC(=O)C=C1	22.9	7.74	4.74	13.2	12	> 100	5.84	4.45	42.2	3.32	18.1	10.7	> 20.8	> 60.2						
O=Cc1ccc(CCl)cc1		46.3	28		38.8		66.9	31.6	51.7		29.4	> 100		85.8						
CN1CN(c2ccccc2)C2(CCN(CCC3COc4ccccc4O3)CC2)C1=O (configuration not stated)	42.5	75.2	50.4	72.4	45.9	42.7	> 100	38	71.1	83.9	70.8	71.6	62.3							
O=C(NCCNCCCNC(=O)c1cc(-c2ccccc2)nc2ccccc12)c1cccc(OCc2ccccc2)c1OCc1ccccc1		3.44	2.95	3.1	3.37	5.05		3.19	3.1	3.24			4.2	2.98						
CSc1nc2c(ncn2C2OCC(O)C(O)C2O)c(=O)n1C (configuration not stated)		> 100	> 100	> 100	> 100	> 100	> 100	> 100	> 100	> 100	> 100			> 100						
CCOC(=O)c1c2c(c(O)c3ccccc3c(O)n(Cc3ccccc3)c1C)C(=O)C=CC2=O		> 100	> 100	0.769	> 100	> 100	> 100	> 100	> 100	> 100	> 100	> 100	> 100	> 100	> 100					
CN1CCC2(CC1)C(=NC1CCCCC1)NC(=S)N2c1ccccc1		> 100	> 100	> 100	> 100	> 100	> 100	> 100	> 100	> 100	> 100	> 100	> 100	> 100	88.3					
O=C1CSC(c2c[nH]c3ccccc23)N1c1ccccc1[N+](=O)[O-] (configuration not stated)	> 100	> 100	> 100	> 100	> 100	> 100	> 100	> 100	> 100	> 100	> 100	> 100	> 100							
CCOP(=O)(OCC)/C(C#N)=C/c1cnc[nH]1	> 100	> 100	> 100	> 100	> 100	> 100	> 100	> 100	> 100	> 100	> 100	> 100		> 100	> 100					
CC(=O)NC(Cc1ccsc1)C(=O)O (configuration not stated)		> 100	> 100	> 100	> 100	> 100	> 100	> 100	> 100	> 100	> 100			> 100						
NC12CCC(CC1=O)C2 (configuration not stated)		> 100	> 100	> 100	> 100	> 100	> 100	> 100	> 100	> 100		> 100	> 100		> 100					
CN1CCN(c2ccc3nc(-c4ccc5nc(-c6ccc(O)cc6)[nH]c5c4)[nH]c3c2)CC1	715	436	553	422	679	648	717	237	948	464	909	2000	153	763		5.33	183	28.6 µM and 45.4 µM	4.53	4.32 µM and 14.2 µM
COC1OC(COC(=O)c2cc(O)c(O)c(O)c2)C(OC(=O)c2cc(O)c(O)c(O)c2)C(OC(=O)c2cc(O)c(O)c(O)c2)C1OC(=O)c1cc(O)c(O)c(O)c1 (configuration not stated)		> 100	> 100	> 100	> 100	97.3	> 100	37.1	54	> 100	> 100	36	> 100	62.6	> 100					
O=C(O)C12CCCCC1CCCC2 (configuration not stated)		> 100	> 100		> 100	> 100	> 100	> 100	> 100	> 100	> 100			> 100						
CC(C)(C)c1cc2c(O)c(c1)Cc1cc(C(C)(C)C)cc(c1O)Cc1cc(C(C)(C)C)cc(c1O)Cc1cc(C(C)(C)C)cc(c1O)Cc1cc(C(C)(C)C)cc(c1O)Cc1cc(C(C)(C)C)cc(c1O)Cc1cc(C(C)(C)C)cc(c1O)Cc1cc(C(C)(C)C)cc(c1O)C2		> 50		> 50	> 50	> 50	> 50	> 50	> 50	> 50	> 50	> 50	> 50	> 50	> 50					
Brc1ccc2c(c1)-c1nc3nc4c(cc3cc1CC2)CCc1ccc(Br)cc1-4	> 100	> 100	> 100	> 100	> 100	> 100	> 100	> 100	> 100	> 100	> 100		> 100	> 100						
